Measured values published in US20250235507A1, “INHALABLE POROUS MICROSPHERE LOADED WITH RECOMBINANT HUMAN RELAXIN-2 AND PREPARATION METHOD THEREFOR” (SHANDONG UNIVERSITY, priority 2023, published 2025).

What was measured:
[1] = test system: bleomycin-induced pulmonary fibrosis mouse model; experiment: Lung histopathology: H&E, Masson trichrome and Sirius red staining; type: in vivo, C57BL/6J mice
Method: (§1) C57BL/6J mice (20±2 g, female) were purchased from Beijing Life River Experimental Animal Technology Co., Ltd, and were housed in specific pathogen-free animal facilities. For the induction of fibrosis, mice were treated with 100 μL of bleomycin (with concentration of 1 mg/mL) at a dose of 5 mg/Kg via tracheal intubation.
(§2) After two weeks of bleomycin administration, mice were divided into four groups. In the RLX@PMs group, porous microspheres loaded with RLX were administered at a single dose of 70 μg/mouse (including RLX) to each mouse via nebulization. Similarly, in the RLX-free group, the RLX-free solution was administered via nebulization at a dose of 5 μg/mouse daily for two weeks. In addition, a blank control group only nebulized with PBS (PBS group) was also set up. Pirfenidone was used as a positive control, and was administered via intragastric gavage to mice at a dose of 300 mg/kg daily for two weeks (PFD group). The weight of mice was recorded once every two days.
In addition to in vivo imaging examination, we also used hematoxylin and eosin (H&E) staining, Masson's trichrome staining and Sirius red staining to detect the histological changes and collagen deposition in the lungs according to the manufacturer's instructions. After the mice were euthanized, the whole lung tissues were collected and fixed in 4% paraformaldehyde overnight. Subsequently, the tissues were subjected to gradient dehydration according to the standard procedure and embedded with paraffin. The lung tissues of mice were embedded in paraffin and cut into 3 μm sections, followed by H&E staining. […] The stained sections were imaged using a VS120 virtual slide microscope, and the severity of interstitial fibrosis was evaluated at 100× magnification by measuring the percentage of blue stained area. […] After staining, the stained sections were scanned by a polarization microscope, and the degree of collagen deposition in the lung was evaluated based on the image. All collagen density data were quantified by ImageJ software.

[2] = test system: bleomycin-induced pulmonary fibrosis mouse model; experiment: Anti-fibrosis effect in bleomycin-induced pulmonary fibrosis mouse model (micro-CT, weight, lung wet weight); type: in vivo
Method: as §1, §2
For further examination, after anesthesia, whole-lung imaging was performed using a micro-computed tomography (micro-CT) imaging system for small animals (scanning parameters: scan resolution, 18 μm; voltage, 70 kV; current, 100 μA). After treatment, all mice were euthanized and tissues were collected for further analysis, and lung coefficient was calculated by the wet weight of lungs.

[3] = mice

site of deposition (lung versus gastrointestinal tract), fluorescence signals ([3]; nebulized inhalation, in vivo imaging) | time until fluorescence signals disappeared completely ([3]; single inhalation) | Structure (SMILES) | collagen accumulation / deposition (Masson trichrome staining) ([1]; fibrosis around bronchi, versus PBS group) | airway remodeling, angiogenesis and parenchymal inflammation (lung histopathology) ([1]; increased by bleomycin exposure) | therapeutic effect on collagen deposition (Sirius red staining) ([1]; polarization microscope) | lung structure / fibrosis by micro-CT ([2]; after 4 weeks of treatment) | mortality ([2]; bleomycin mice, PFD 300 mg/kg daily, intragastric) | weight change of mice ([2]; weight recorded every two days)
 |  | Cc1ccc(=O)n(-c2ccccc2)c1 [Pirfenidone] | lower than that of the PBS group | attenuated these effects | slight therapeutic effect | a certain degree of fibrosis | died within three weeks | progressive weight loss
higher | ≤ 2 weeks | CCN(CC)c1ccc2c(-c3ccccc3C(=O)O)c3ccc(=[N+](CC)CC)cc-3oc2c1 [rhodamine B-free, rhodamine B] |  |  |  |  |  | 
